# From publication PMC6726485 (Nature, 2019)
# What was measured:
# [1] = target: T1, mitoKATP (endogenous, HeLa mitochondria) (Homo sapiens, UniProt Q9NUT2); test: mitochondrial swelling; type: biochemical; conditions: KCl swelling buffer, 1 mM MgCl2, 1 uM oligomycin, pH 7.2
# T1 sequence (Q9NUT2 26-735): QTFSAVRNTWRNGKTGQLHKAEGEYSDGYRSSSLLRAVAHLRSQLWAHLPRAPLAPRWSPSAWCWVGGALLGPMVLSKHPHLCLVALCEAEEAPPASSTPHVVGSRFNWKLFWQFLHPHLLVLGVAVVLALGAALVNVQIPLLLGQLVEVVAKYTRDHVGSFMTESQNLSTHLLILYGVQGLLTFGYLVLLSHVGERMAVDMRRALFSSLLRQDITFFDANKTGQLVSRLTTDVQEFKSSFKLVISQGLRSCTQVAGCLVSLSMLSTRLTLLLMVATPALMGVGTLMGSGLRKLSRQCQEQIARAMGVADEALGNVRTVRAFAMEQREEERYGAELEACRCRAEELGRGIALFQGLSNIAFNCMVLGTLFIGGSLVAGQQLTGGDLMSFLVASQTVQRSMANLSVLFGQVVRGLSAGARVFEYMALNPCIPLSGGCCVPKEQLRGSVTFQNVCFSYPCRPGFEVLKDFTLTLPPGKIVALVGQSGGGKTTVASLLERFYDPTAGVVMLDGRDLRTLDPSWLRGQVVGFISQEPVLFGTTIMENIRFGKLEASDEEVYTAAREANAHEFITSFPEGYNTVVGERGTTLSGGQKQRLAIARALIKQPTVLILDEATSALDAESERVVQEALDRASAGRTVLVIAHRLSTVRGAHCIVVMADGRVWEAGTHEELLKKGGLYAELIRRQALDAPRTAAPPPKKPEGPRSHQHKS
# T1 sequence (Q96ER9 36-411 partner): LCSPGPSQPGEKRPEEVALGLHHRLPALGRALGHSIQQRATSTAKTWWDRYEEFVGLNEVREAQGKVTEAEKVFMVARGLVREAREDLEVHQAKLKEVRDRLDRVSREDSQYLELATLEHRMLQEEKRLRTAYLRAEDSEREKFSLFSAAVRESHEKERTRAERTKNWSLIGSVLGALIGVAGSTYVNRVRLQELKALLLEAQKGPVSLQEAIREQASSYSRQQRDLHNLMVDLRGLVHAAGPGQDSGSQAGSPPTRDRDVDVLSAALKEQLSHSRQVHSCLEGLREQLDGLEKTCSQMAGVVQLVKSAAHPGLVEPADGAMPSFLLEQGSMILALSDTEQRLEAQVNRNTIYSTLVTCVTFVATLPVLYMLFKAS
# [2] = target: T2, mitoKATP (endogenous, mouse liver mitochondria) (Mus musculus, UniProt Q9CXJ4); test: […]+ uptake, isolated liver mitochondria; type: biochemical; conditions: 1 mM MgCl2, 1 uM oligomycin, pH 7.2
# T2 sequence (Q9CXJ4 26-717): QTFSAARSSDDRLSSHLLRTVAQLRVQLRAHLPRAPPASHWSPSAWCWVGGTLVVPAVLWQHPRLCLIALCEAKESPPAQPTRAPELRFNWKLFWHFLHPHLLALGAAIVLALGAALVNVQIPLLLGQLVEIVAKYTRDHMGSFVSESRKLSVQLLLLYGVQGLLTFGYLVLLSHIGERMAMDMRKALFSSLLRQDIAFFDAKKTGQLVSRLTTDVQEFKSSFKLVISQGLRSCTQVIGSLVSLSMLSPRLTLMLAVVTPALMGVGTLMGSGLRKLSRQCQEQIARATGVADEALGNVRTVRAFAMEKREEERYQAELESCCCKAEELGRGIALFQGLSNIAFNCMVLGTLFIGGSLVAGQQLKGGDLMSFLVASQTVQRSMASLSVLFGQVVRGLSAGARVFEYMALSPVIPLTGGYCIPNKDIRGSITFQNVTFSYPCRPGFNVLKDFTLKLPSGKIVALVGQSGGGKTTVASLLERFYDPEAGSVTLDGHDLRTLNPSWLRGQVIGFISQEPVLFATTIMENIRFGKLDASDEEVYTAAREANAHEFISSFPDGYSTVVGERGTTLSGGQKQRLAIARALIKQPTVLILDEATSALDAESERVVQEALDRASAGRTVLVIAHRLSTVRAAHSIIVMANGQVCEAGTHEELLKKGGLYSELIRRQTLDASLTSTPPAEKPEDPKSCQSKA
# T2 sequence (Q3URS9 36-406 partner): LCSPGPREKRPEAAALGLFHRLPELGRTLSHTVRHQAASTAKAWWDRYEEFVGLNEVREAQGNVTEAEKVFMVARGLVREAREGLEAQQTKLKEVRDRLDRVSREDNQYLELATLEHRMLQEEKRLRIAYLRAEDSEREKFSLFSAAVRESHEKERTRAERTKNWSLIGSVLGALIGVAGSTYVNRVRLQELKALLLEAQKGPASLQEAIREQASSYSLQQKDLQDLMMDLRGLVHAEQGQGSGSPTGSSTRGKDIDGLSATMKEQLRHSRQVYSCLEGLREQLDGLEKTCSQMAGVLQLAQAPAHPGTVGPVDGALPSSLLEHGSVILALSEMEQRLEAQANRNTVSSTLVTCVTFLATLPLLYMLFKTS
SMILES,"mitochondrial swelling (A520), isolated HeLa mitochondria ([1]; inhibitor)","86Rb+ uptake, isolated liver mitochondria ([2]; inhibitor, 2 mM ATP)","mitochondrial swelling (A520), isolated HeLa mitochondria ([1]; activator)","86Rb+ uptake, isolated liver mitochondria ([2]; activator, 50 uM diazoxide)"
Nc1ncnc2c1ncn2[C@@H]1O[C@H](COP(=O)(O)OP(=O)(O)OP(=O)(O)O)[C@@H](O)[C@H]1O [ATP],ATP decreases and diazoxide increases the swelling rates,neither ATP nor diazoxide were able to alter K^+ fluxes when Mitok was absent,,
CC1=NS(=O)(=O)c2cc(Cl)ccc2N1 [diazoxide],,,ATP decreases and diazoxide increases the swelling rates,neither ATP nor diazoxide were able to alter K^+ fluxes when Mitok was absent
